Data on two compounds can be found in US8187821B2, “Compositions and methods for the modulation of PGRMC1” (University of Utah Research Foundation, priority 2008, dated 2012).

Several values for one entry are separate records, joined by “and”; a condition that tells them apart may be missing. Equal values may be shown once. Read-outs that look alike come from different tables or passages of the source.

Data set [1] has as its target T1, His10-PGRMC1 (Homo sapiens, UniProt O00264).
T1 construct: a product containing the full length coding region of PGMRC1 flanked by Nde1 and BamHI restriction sites; made in house; host or cells: E. coli BL21 (DE3) / BL21 codon plus (RIPL); purified bacterial membranes
The data set is described as follows: PGRMC1 binding assay: [^3H] ligand binding to purified bacterial membranes expressing His10-PGRMC1 (+PGRMC1). The settings on record: for Membrane-Associated [^3H] Ligand / Kd / Q1 / Q2: +PGRMC1 membranes; for Membrane-Associated [^3H] Ligand, Specific: Specific (+PGRMC1 minus −PGRMC1); for saturability of specific binding: ligand concentration spanning four orders of magnitude, FIG. 8; for His10-PGRMC1 specific binding with proteolyzed membranes: membranes trypsin-treated prior to ligand binding; for ligand bound at saturation/equilibrium in time course: 37° C; for ligand bound at saturation/equilibrium in time course / time to reach saturation/equilibrium of binding: FIG. 5, time course; for Q1: number of non-specific sites; for Q2: number of specific sites. How it is done: For bacterial expression, BL21 (DE3) cells (Stratagene, LaJolla, Calif.) were transformed with pET-16b:PGRMC1 and plated on LB agar plates containing ampicillin (amp). One to 7 days later, individual colonies were harvested and used to inoculate small volume (5-200 mL) liquid cultures of LB-amp media. Cultures were grown with shaking at 37° C. until early log phase (OD600=0.6). IPTG was added to a final concentration of […] and the cultures were incubated for another 4 hours at 37° C. or overnight at room temperature. His10-PGRMC1 (His10 disclosed as SEQ ID NO: 14) expression was confirmed by SDS-PAGE followed by Coomassie stain and western blot using mouse monoclonal anti-tetra-His (SEQ ID NO: 15) antibody (Qiagen, Valencia, Calif.).
IPTG-induced cells were harvested by centrifugation (5,000 rpm; 5 min) and washed with ice-cold H2O. The pellet was resuspended in 5 mL buffer A (50 mM Tris-HCl pH 7.5, 150 mM NaCl, 0.1% NP40, and 10% glycerol) with 5-10 mg lysozyme, and incubated on ice for 30 min. The cells were then disrupted by three bursts of sonication (45 sec) at high intensity with a 45 sec cooling period between bursts. Soluble material was removed by centrifugation (15,000 rpm, 10 min) and the pellet resuspended in 5 mL buffer A. His10-PGRMC1 (His10 disclosed as SEQ ID NO: 14) was confirmed to be present in purified membranes by SDS-PAGE followed by Coomassie stain and western blot using anti-tetra-His (SEQ ID NO: 15) antibody (Qiagen). Total protein in the His10-PGRMC1 (His10 disclosed as SEQ ID NO: 14) transformed and untransformed purified membranes was determined by the Bradford method and membranes were normalized to 10 μg/μL total protein (diluted with buffer A). Purified membranes were then aliquoted and stored frozen until use.
(§1) The standard 10 μL binding reaction contained 10 μp purified membranes (total protein) and 10 μM [^3H] progesterone or [^3H] cholesterol (3,000-5,000 cpm) in buffer A: 20% ethanol. Stock solutions (100 μM) of [^3H] cholesterol and [^3H] progesterone containing ˜4×10^4 cpm/μL, were prepared in 95% ethanol. Reactions were prepared in clear 2.0 mL microcentrifuge tubes on ice. To start the reaction, the microfuge tube was briefly mixed (vortex) and placed at 37° C. Following a 10 to 30 min incubation, the tubes were centrifuged in a microfuge (˜13,000 rpm) for 2 min. The supernatant was carefully removed and the pellet was washed with an additional 10 μL water. After a second round of centrifugation (2 min; 13,000 rpm), the resulting supernatant was combined with the first and the pellet was resuspended in 20 μL H2O, Scintillation fluid (700 μL Wallac Optiflour) was added to each fraction and the fractions were mixed extensively. The fractions were then counted in a multi-well scintillation counter (Wallac Microbeta Triluxmax, Waltham, Mass.) for 30 seconds each. Binding are reported as μ/moles of ligand bound per mg of membrane protein. His10-PGRMC1 (His10 disclosed as SEQ ID NO: 14)-specific binding is reported as the difference in binding between transformed and untransformed bacteria. Experimental deviations from the standard assay conditions are noted in individual figure legends.
In order to better understand PGRMC1's biological function and to study ligand binding, an in vitro binding assay was developed. E. coli BL21 codon plus (RIPL) cells were transformed with a vector encoding PGRMC1 that was epitope tagged with 10 histidine (SEQ ID NO: 14) residues at the NH2-terminus. Untransformed BL21 cells were used as the control. A purification procedure was performed to remove soluble proteins and cell components from the transformed (+PGRMC1) and untransformed (−PGRMC1) bacterial membranes. The resulting purified membranes were confirmed for the presence and absence of His10-PGRMC1 (His10 disclosed as SEQ ID NO: 14) respectively by Coomassie stain and western blot using anti-His antibody. The membranes with [^3H] progesterone or [^3H] cholesterol were then incubated. […]

In data set [2] the target is T1, His10-PGRMC1. In words: Competition of cold competitors with [^3H] progesterone or [^3H] cholesterol for His10-PGRMC1 binding. The settings on record: for effect of cold competitor on binding of [^3H] cholesterol: competitor at ten-fold higher concentration; for effect of cold competitor on specific binding of [^3H] progesterone: excess cold competitor (10 or 100-fold), FIG. 9. How it is done: as §1
To test whether progesterone and cholesterol compete for the same specific binding site, the direct binding of [^3H] progesterone or [^3H] cholesterol to His10-PGRMC1 (His10 disclosed as SEQ ID NO: 14) in the presence of various cold competitors was examined. In these experiments, the standard amount of [^3H] ligand was combined with a cold competitor at either 10 or 100-fold higher concentration and mixed well to ensure homogeneity. These stock ligand solutions were then used in the standard binding assay as described.
The ability of other putative ligands reported in the literature to compete with progesterone binding was examined. […] As a control, cold progesterone (P) was used as a competitor and it was observed that excess cold progesterone competes with [^3H] progesterone for His10-PGRMC1 (His10 disclosed as SEQ ID NO: 14) binding. Contrastingly, binding of [^3H] cholesterol to His10-PGRMC1 (His10 disclosed as SEQ ID NO: 14) was unaffected by the presence of progesterone, ergosterol, or heme at ten-fold higher concentrations (FIG. 9, cholesterol). It was not until competitor concentrations were 100-fold higher than ligand that a reduction of cholesterol binding was observed.

A short description of data set [3]: Solubility of ligand in the binding assay. The format is physicochemical. The settings on record: binding assay buffer; read-out: concentration above which only partially soluble in the assay. How it is done:
Next, the question of whether binding of ligand to His10-PGRMC1 (His10 disclosed as SEQ ID NO: 14) is saturable was examined. […] Ligand binding time was held constant while increasing the ligand concentration by half logs in each experiment. The ligand concentration spanned four orders of magnitude from lowest to highest. […] Cholesterol was only partially soluble in our assay at concentrations greater than 3 mM so testing saturation at higher concentrations was unable to be performed.

Where [4] appears, read: Protease + (trypsin before ligand binding).
Setting [5] is: two binding site model fit of saturation data, non-specific site, read-out: Kd1.
[6] abbreviates: two binding site model, specific site, read-out: Kd2.

T1 sequence (O00264 whole entry): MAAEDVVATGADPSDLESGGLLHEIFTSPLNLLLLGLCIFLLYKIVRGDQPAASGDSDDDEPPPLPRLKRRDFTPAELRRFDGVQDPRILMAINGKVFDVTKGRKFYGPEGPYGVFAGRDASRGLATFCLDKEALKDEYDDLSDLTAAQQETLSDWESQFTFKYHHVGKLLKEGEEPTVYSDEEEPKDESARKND

With `CC(C)CCC[C@@H](C)[C@H]1CC[C@H]2[C@@H]3CC=C4C[C@@H](O)CC[C@]4(C)[C@H]3CC[C@]12C` [Cholesterol, cholesterol], on His10-PGRMC1 [1] (setting [4]), the “Membrane-Associated [^3H] Ligand” value worked out at 2.6 ± 0.2 nmoles/mg protein. For the same compound, on His10-PGRMC1 [1] (Protease −), the “Membrane-Associated [^3H] Ligand” value is on record as 5.2 ± 0.3 nmoles/mg protein and the “Membrane-Associated [^3H] Ligand, Specific” value is 1.5 ± 0.2 nmoles/mg protein. Besides, on His10-PGRMC1 [1] (Protease +), the “Membrane-Associated [^3H] Ligand, Specific” value was 0.0 ± 0.2 nmoles/mg protein. In addition, the “cholesterol binding relative to progesterone binding” value on His10-PGRMC1 [1] (higher at every time point of the time course) was 2-3 fold. Further, on His10-PGRMC1 [1], the “saturability of specific binding” value was “did not appear to be saturable”, the “His10-PGRMC1 specific binding with proteolyzed membranes” value is on record as “complete loss”, the “ligand bound at saturation/equilibrium in time course” value was about 2 nmoles/mg protein and the “time to reach saturation/equilibrium of binding” value is listed as “approximately the same rate as progesterone”. In addition, the “Kd of cholesterol relative to progesterone (fold lower)” value at His10-PGRMC1 [1] (specific site, two binding site model) is reported as 15 fold. The Kd on His10-PGRMC1 [1] (setting [5]) was determined as 1000 µM. The Q1 on His10-PGRMC1 [1] (two binding site model) is given as 9.6 × 10^9 Sites. Also, the Kd at His10-PGRMC1 [1] (setting [6]) came out at 0.00035 µM. Moreover, at His10-PGRMC1 [2], the “competitor excess over ligand at which a reduction of [^3H] cholesterol binding was observed” value is listed as 100 fold, the “effect of cold competitor on binding of [^3H] cholesterol” value is listed as “did not begin to reduce” and the “effect of cold competitor on specific binding of [^3H] progesterone” value is “greatly reduced”. Further, the solubility in data set [3] was over 3000 µM.

With `CC(=O)[C@H]1CC[C@H]2[C@@H]3CCC4=CC(=O)CC[C@]4(C)[C@H]3CC[C@]12C` [Progesterone, progesterone], the “Membrane-Associated [^3H] Ligand” value at His10-PGRMC1 [1] (setting [4]) is listed as 1.6 ± 0.3 nmoles/mg protein. Moreover, at His10-PGRMC1 [1] (Protease −), the “Membrane-Associated [^3H] Ligand” value came out at 3.1 ± 0.3 nmoles/mg protein and the “Membrane-Associated [^3H] Ligand, Specific” value is listed as 0.7 ± 0.2 nmoles/mg protein. The “Membrane-Associated [^3H] Ligand, Specific” value at His10-PGRMC1 [1] (Protease +) is 0.0 ± 0.1 nmoles/mg protein. Besides, on His10-PGRMC1 [1], the “saturability of specific binding” value is reported as “appeared to be saturable”, the “His10-PGRMC1 specific binding with proteolyzed membranes” value is listed as “complete loss”, the “ligand bound at saturation/equilibrium in time course” value is given as “approximately 0.5 nmoles/mg protein” and the “time to reach saturation/equilibrium of binding” value is 15 to 30 min. The “ligand concentration at half-maximal specific binding” value at His10-PGRMC1 [1] (saturation experiment, FIG. 8A) was “approximately 50 μM”. Besides, the Kd at His10-PGRMC1 [1] (setting [5]) worked out at 1000 µM. Further, at His10-PGRMC1 [1] (two binding site model), the Q1 was 8.0 × 10^9 Sites and the Q2 was 19,260 Sites. In addition, the Q2 entry at His10-PGRMC1 [1] (two binding site model, listed as progesterone) is recorded as “approximately 20,000 Sites”. Moreover, at His10-PGRMC1 [1] (setting [6]), the Kd was 0.0055 µM and 0.00554 µM. Further, at His10-PGRMC1 [2], the “effect of cold competitor on binding of [^3H] cholesterol” value is given as “unaffected” and the “effect of cold competitor on specific binding of [^3H] progesterone” value was “competes”.
